The assay addresses T1, AKT2 (PKB beta) (Homo sapiens, UniProt P31751).
T1 construct: purchased Thermo Fisher Scientific (Life Technologies) SelectScreen
The assay is described as follows: SelectScreen Z'LYTE. It counts as biochemical. The method, then: The in vitro kinase selectivity of NU5455 was determined using the SelectScreen Broad Assay Panel (Thermo Fisher Scientific) involving activity and binding assays (Supplemental Table 1). […] Class IA PI3Ks were measured using the p85α subunit.
Kinase [ATP] % Assay Kinase [ATP] % Assay Kinase [ATP] % Assay Kinase [ATP] % Assay
DNA-PK Km app 98.3 Z LATS2 n/a 4.7 L KIT D820E n/a 1.3 L GSK3B (GSK3 beta) Km app -2.5 Z
PIK3C3 (hVPS34) Km app 85.9 A PRKCZ (PKC zeta) Km app 4.7 Z GRK1 n/a 1.3 L BMPR2 n/a -2.5 L
PIK3C2B (PI3K-C2 beta) 10 28.9 A FGFR1 Km app 4.7 Z BRSK2 n/a 1.2 L CDC42 BPB (MRCKB) Km app -2.5 Z
SNF1LK2 Km app 26.6 Z MINK1 Km app 4.6 Z NUAK1 (ARK5) Km app 1.2 A AMPK (A2/B2/G2) n/a -2.6 L
HCK Km app 18.0 Z CSF1R (FMS) Km app 4.3 Z CDK9/cyclin K n/a 1.0 L PRKG1 Km app -2.7 Z
NEK2 Km app 17.8 Z CSNK1G3 (CK1 gamma 3) Km app 4.2 Z NUAK2 n/a 1.0 L KIT T670E n/a -2.8 L
ALK Km app 17.3 Z STK32C (YANK3) n/a 4.2 L CDK2/cyclin O n/a 0.9 L ERBB4 (HER4) Km app -2.8 Z
FGFR3 K650M n/a 16.5 L STK22D (TSSK1) Km app 4.2 Z CAMKK2 (CaMKK beta) n/a 0.9 L PLK4 n/a -2.8 L
SIK3 n/a 16.1 L TAOK3 (JIK) n/a 4.2 L FGFR3 Km app 0.9 Z GRK7 Km app -3.0 Z
LYN A Km app 15.2 Z RPS6KA4 (MSK2) Km app 4.2 Z ULK2 n/a 0.9 L MAPKAPK2 Km app -3.1 Z
BMPR1B (ALK6) n/a 14.5 L PTK2B (FAK2) Km app 4.2 Z KIT D816V n/a 0.9 L FGFR4 Km app -3.1 Z
INSRR (IRR) Km app 14.1 Z CLK2 Km app 4.1 Z CAMK1 (CaMK1) 10 0.8 A CASK n/a -3.1 L
PLK2 Km app 14.1 Z STK24 (MST3) Km app 4.1 Z PTK6 (Brk) Km app 0.7 Z GRK5 Km app -3.2 Z
PRKACA (PKA) Km app 14.0 Z CAMK1D (CaMKI delta) Km app 4.1 Z CAMK2B (CaMKII beta) Km app 0.7 Z EGFR (ErbB1) T790M Km app -3.3 Z
EIF2AK2 (PKR) n/a 13.3 L INSR Km app 4.1 Z ACVR1 (ALK2) n/a 0.7 L PAK4 Km app -3.3 Z
PRKX Km app 12.5 Z IRAK1 Km app 4.0 A ABL1 H396P n/a 0.6 L DAPK3 (ZIPK) Km app -3.4 Z
FGR Km app 12.1 Z SRC N1 Km app 3.9 Z MERTK (cMER) A708S n/a 0.6 L RET M918T n/a -3.5 L
CLK1 Km app 11.7 Z SRPK2 Km app 3.9 Z MAPKAPK5 (PRAK) Km app 0.6 Z PRKCQ (PKC theta) Km app -3.7 Z
MARK3 Km app 11.4 Z RPS6KA6 (RSK4) Km app 3.8 Z AKT1 (PKB alpha) Km app 0.5 Z CAMKK1 (CAMKKA) n/a -3.8 L
PDGFRB (PDGFR beta) Km app 11.0 Z GRK6 Km app 3.7 Z NTRK3 (TRKC) Km app 0.4 Z FLT3 D835Y Km app -3.9 Z
PRKCN (PKD3) Km app 10.7 Z PKN1 (PRK1) Km app 3.6 Z ZAP70 Km app 0.3 Z ROCK2 Km app -4.1 Z
STK16 (PKL12) n/a 10.5 L MAP3K8 (COT) 100 3.5 Z CSNK1A1 (CK1 alpha 1) Km app 0.3 Z CHUK (IKK alpha) Km app -4.2 A
FES (FPS) Km app 10.4 Z FLT4 (VEGFR3) Km app 3.5 Z MYLK (MLCK) n/a 0.2 L AXL Km app -4.2 Z
ABL1 Km app 10.4 Z GRK4 Km app 3.5 Z MKNK2 (MNK2) n/a 0.2 L PIM2 Km app -4.3 Z
MUSK Km app 10.3 Z FRK (PTK5) Km app 3.4 Z AMPK (A1/B1/G3) n/a 0.2 L PAK1 Km app -4.4 Z
MAPK1 (ERK2) Km app 10.1 Z FYN A n/a 3.3 L MAP3K2 (MEKK2) n/a 0.1 L BMPR1A (ALK3) n/a -4.4 L
BRAF 100 9.9 Z CDK1/cyclin A2 n/a 3.3 L CDK8/cyclin C n/a 0.1 L STK4 (MST1) Km app -4.4 Z
IGF1R Km app 9.7 Z KIT V559D T670I n/a 3.1 L MARK2 Km app 0.1 Z PRKCH (PKC eta) Km app -4.6 Z
MAPK14 (p38 alpha) Km app 9.7 Z SPHK2 10 3.1 A ICK n/a 0.0 L SGKL (SGK3) Km app -4.6 Z
LCK Km app 9.6 Z FGFR3 G697C n/a 3.1 L FGFR2 Km app 0.0 Z PI4KB (PI4K beta) Km app -4.7 A
MAPK11 (p38 beta) Km app 9.5 Z RIPK2 n/a 3.1 L AKT2 (PKB beta) Km app 0.0 Z PRKCE (PKC epsilon) Km app -4.9 Z
SRC Km app 9.5 Z PAK6 Km app 3.0 Z EPHB2 Km app -0.1 Z PHKG1 Km app -5.0 Z
CHEK1 (CHK1) Km app 9.3 Z LYN B Km app 3.0 Z TGFBR2 n/a -0.1 L PDGFRA D842V Km app -5.0 Z
CAMK2D (CaMKII delta) Km app 9.3 Z DAPK2 n/a 2.9 L TEK (Tie2) Km app -0.1 Z PRKG2 (PKG2) Km app -5.1 Z
PLK1 Km app 9.2 Z EPHA4 Km app 2.9 Z AURKA (Aurora A) Km app -0.1 Z TYRO3 (RSE) Km app -5.1 Z
RET Y791F Km app 9.2 Z PIK3CG (p110 gamma) Km app 2.9 A KIT D816H n/a -0.2 L TAOK2 (TAO1) Km app -5.1 Z
FLT3 Km app 9.1 Z HIPK1 (Myak) Km app 2.8 Z KIT N822K n/a -0.2 L EPHB4 Km app -5.3 Z
MAPK10 (JNK3) 100 9.0 Z ADRBK2 (GRK3) Km app 2.8 Z PRKACG (PRKAC gamma) n/a -0.2 L AURKC (Aurora C) Km app -5.4 Z
CSNK2A2 (CK2 alpha 2) Km app 8.7 Z STK17B (DRAK2) n/a 2.7 L TEK (TIE2) Y1108F n/a -0.3 L JAK1 Km app -5.7 Z […]

T1 sequence (P31751 whole entry): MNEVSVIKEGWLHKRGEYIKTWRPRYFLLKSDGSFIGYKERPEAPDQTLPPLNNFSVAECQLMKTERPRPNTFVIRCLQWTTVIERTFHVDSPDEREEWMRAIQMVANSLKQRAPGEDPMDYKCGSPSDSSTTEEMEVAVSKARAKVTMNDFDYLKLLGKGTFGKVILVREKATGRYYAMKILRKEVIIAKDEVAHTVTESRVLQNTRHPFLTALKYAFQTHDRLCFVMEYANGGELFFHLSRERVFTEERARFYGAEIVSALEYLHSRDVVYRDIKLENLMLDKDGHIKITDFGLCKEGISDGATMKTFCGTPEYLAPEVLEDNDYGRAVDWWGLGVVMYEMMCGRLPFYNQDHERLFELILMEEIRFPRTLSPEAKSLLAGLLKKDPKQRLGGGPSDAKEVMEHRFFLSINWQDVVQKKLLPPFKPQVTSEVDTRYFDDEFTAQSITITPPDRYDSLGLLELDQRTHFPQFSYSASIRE

The molecule `CN(C(=O)CN1CCOCC1)c1ccc2sc3c(-c4cccc5c(=O)cc(N6CC7CCC(C6)O7)oc45)cccc3c2c1` [NU5455] showed an inhibition at 1 µM of 0%.

A word on the inhibition: it is the percentage by which the read-out fell short of the control. Higher therefore signals strong suppression.
